Experimental data reported in PubChem BioAssay (NCI).
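Compound exposure: 48 hours, 5 concentrations, 96-well plates. GI50 = concentration required for 50% inhibition of growth. TGI is the concentration that stops growth completely.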

Legend:
Assay in all cases: NCI anticancer screen, dose series, 48 h
HCC-2998 colon = test system: HCC-2998 colon
NCI-H522 lung = test system: NCI-H522 lung
786-0 renal = test system: 786-0 renal
OVCAR-5 ovarian = test system: OVCAR-5 ovarian
SF-295 CNS = test system: SF-295 CNS
IGROV1 ovarian = test system: IGROV1 ovarian
SN12C renal = test system: SN12C renal
COLO 205 colon = test system: COLO 205 colon
SF-268 CNS = test system: SF-268 CNS
RPMI-8226 leukemia = test system: RPMI-8226 leukemia

SMILES	TGI (HCC-2998 colon)	TGI (NCI-H522 lung)	TGI (786-0 renal)	TGI (OVCAR-5 ovarian)	TGI (SF-295 CNS)	TGI (IGROV1 ovarian)	TGI (SN12C renal)	TGI (COLO 205 colon)	TGI (SF-268 CNS)	TGI (RPMI-8226 leukemia)	GI50 (RPMI-8226 leukemia)	GI50 (HCC-2998 colon)	GI50 (NCI-H522 lung)	GI50 (OVCAR-5 ovarian)	GI50 (SF-295 CNS)	GI50 (IGROV1 ovarian)	GI50 (SN12C renal)	GI50 (COLO 205 colon)	GI50 (SF-268 CNS)
CC(=O)c1[nH]c(NCc2ccccc2)c(C(=S)Nc2ccccc2)c1N	40.6 µM	0.166 µM	32.5 µM	55.1 µM	66 µM	14.1 µM	50.8 µM	> 100 µM	55.3 µM	–	–	–	–	–	–	–	–	–	–
Cc1cc2oc(=N)c(C#N)c(C)c2cc1C	> 100 µM	–	> 100 µM	> 100 µM	> 100 µM	> 100 µM	> 100 µM	> 100 µM	> 100 µM	> 100 µM	–	–	–	–	–	–	–	–	–
O=C1CCCC1CN1CCCC1 (centres undefined)	> 60.4 µM	–	14.9 µM	32.4 µM	> 100 µM	26.6 µM	32.6 µM	8.74 µM	48.5 µM	6.8 µM	–	–	–	–	–	–	–	–	–
Cc1nn(-c2ccccc2)c2c1C(c1ccc(Cl)cc1)NC(=S)N2 (centres undefined)	–	37.2 µM	36.8 µM	89.4 µM	62.3 µM	28.1 µM	47.5 µM	31.2 µM	> 100 µM	48.7 µM	–	–	–	–	–	–	–	–	–
NCc1ccccc1-c1c2nc(c(-c3ccccc3CN)c3ccc([nH]3)c(-c3ccccc3CN)c3nc(c(-c4ccccc4CN)c4ccc1[nH]4)C=C3)C=C2	76.3 µM	–	–	33.8 µM	–	59.4 µM	39.8 µM	97.7 µM	> 100 µM	32.3 µM	–	–	–	–	–	–	–	–	–
CC1(CCOCc2ccccc2)NC(=O)NC1=O (centres undefined)	> 100 µM	> 100 µM	> 100 µM	> 100 µM	> 100 µM	> 100 µM	> 100 µM	–	> 100 µM	–	–	–	–	–	–	–	–	–	–
CN(C)C1(N(C)C)Oc2c(c(=O)n(C)c(=O)n2C)C(c2ccccc2)C1(F)F (centres undefined)	> 100 µM	–	> 100 µM	> 100 µM	> 100 µM	–	–	> 100 µM	> 100 µM	> 100 µM	–	–	–	–	–	–	–	–	–
COC(=O)/C=C(\C)CC(O)/C=C(\C)CCC=C(C)C (centres undefined)	> 100 µM	–	> 100 µM	> 100 µM	> 100 µM	> 100 µM	> 100 µM	> 100 µM	–	–	–	–	–	–	–	–	–	–	–
Cn1c(=O)c2c(nc(Cc3ccccc3)n2CC(=O)O)n(C)c1=O	> 100 µM	> 100 µM	> 100 µM	> 100 µM	> 100 µM	> 100 µM	> 100 µM	–	> 100 µM	–	–	–	–	–	–	–	–	–	–
CCC(/C=C/C1OC(=O)C=CC1C)=C\C(C)C/C=C/C(C)=C/C(C)C(=O)C(C)C(O)C(C)C/C(C)=C/C(=O)O (centres undefined)	–	–	–	15.5 µM	2.39 µM	16 µM	12 µM	–	7.64 µM	–	3.11 pM	2.44 µM	6.22 pM	< 1 pM	17.9 pM	7.48 pM	69.6 pM	7.52 pM	1.89 µM
CC(O)C1(CNc2cc(Cl)nc(N)n2)CCC1 (centres undefined)	> 100 µM	> 100 µM	> 100 µM	> 100 µM	> 100 µM	> 100 µM	> 100 µM	–	–	> 100 µM	–	–	–	–	–	–	–	–	–
CC(OC(C)(C)C)[C@H](NC(=O)OCC(Cl)(Cl)Cl)C(=O)O (some centres undefined)	> 100 µM	> 100 µM	–	> 100 µM	> 100 µM	> 100 µM	> 100 µM	> 100 µM	> 100 µM	> 100 µM	–	–	–	–	–	–	–	–	–
